In ChEMBL document CHEMBL1949518, “Synthesis and biological evaluation of some new 2-pyrazolines bearing benzene sulfonamide moiety as potential anti-inflammatory and anti-cancer agents” (Eur J Med Chem, 2011):

Assays:
Assay type in all cases: functional
[1] = test system: OVCAR-4; test: Anticancer activity against human OVCAR4 cells after 48 hrs by SRB assay; conditions: OVCAR-4, 48 h
[2] = test system: NCI-H322M; test: Anticancer activity against human NCI-H322M cells after 48 hrs by SRB assay
[3] = test system: LOX IMVI; test: Anticancer activity against human LOXIMVI cells after 48 hrs by SRB assay; conditions: for CC50: read-out: LC50 (the source's name)
[4] = test system: MDA-MB-435; test: Anticancer activity against human MDA-MB-435 cells after 48 hrs by SRB assay; conditions: MDA-MB-435, 48 h
[5] = test system: SF-268; test: Anticancer activity against human SF268 cells after 48 hrs by SRB assay; conditions: SF-268, 48 h; for CC50: read-out: LC50 (the source's name)
[6] = test system: HCT-15; test: Anticancer activity against human HCT15 cells after 48 hrs by SRB assay; conditions: HCT-15, 48 h
[7] = test system: NCI/ADR-RES; test: Anticancer activity against human NCI/ADR-RES cells after 48 hrs by SRB assay; conditions: for CC50: read-out: LC50 (the source's name)
[8] = test system: HT-29; test: Anticancer activity against human HT-29 cells after 48 hrs by SRB assay; conditions: HT-29, 48 h
[9] = test system: UO-31; test: Anticancer activity against human UO31 cells after 48 hrs by SRB assay; conditions: UO-31, 48 h; for CC50: read-out: LC50 (the source's name)
[10] = test system: EKVX; test: Anticancer activity against human EKVX cells after 48 hrs by SRB assay
[11] = test system: OVCAR-3; test: Anticancer activity against human OVCAR3 cells after 48 hrs by SRB assay; conditions: OVCAR-3, 48 h
[12] = test system: CCRF-CEM; test: Anticancer activity against human CCRF-CEM cells after 48 hrs by SRB assay; conditions: for CC50: read-out: LC50 (the source's name)
[13] = test system: TK-10; test: Anticancer activity against human TK10 cells after 48 hrs by SRB assay; conditions: TK-10, 48 h; for CC50: read-out: LC50 (the source's name)
[14] = test system: RXF 393; test: Anticancer activity against human RXF393 cells after 48 hrs by SRB assay; conditions: RXF 393, 48 h; for CC50: read-out: LC50 (the source's name)
[15] = test system: MCF7; test: Anticancer activity against human MCF7 cells after 48 hrs by SRB assay; conditions: MCF7, 48 h; for CC50: read-out: LC50 (the source's name)
[16] = test system: ACHN; test: Anticancer activity against human ACHN cells after 48 hrs by SRB assay; conditions: for CC50: read-out: LC50 (the source's name)
[17] = test system: SN12C; test: Anticancer activity against human SN12C cells after 48 hrs by SRB assay; conditions: for CC50: read-out: LC50 (the source's name)
[18] = test system: SK-MEL-2; test: Anticancer activity against human SK-MEL-2 cells after 48 hrs by SRB assay; conditions: SK-MEL-2, 48 h
[19] = test system: OVCAR-5; test: Anticancer activity against human OVCAR5 cells after 48 hrs by SRB assay; conditions: OVCAR-5, 48 h
[20] = test system: A549; test: Anticancer activity against human A549 cells after 48 hrs by SRB assay; conditions: A549, 48 h
[21] = Anticancer activity against human Hs 578T cells after 48 hrs by SRB assay; conditions: for CC50: read-out: LC50 (the source's name)
[22] = test system: A498; test: Anticancer activity against human A498 cells after 48 hrs by SRB assay; conditions: A498, 48 h; for CC50: read-out: LC50 (the source's name)
[23] = test system: U-251; test: Anticancer activity against human U251 cells after 48 hrs by SRB assay; conditions: U-251, 48 h
[24] = test system: HCC 2998; test: Anticancer activity against human HCC2998 cells after 48 hrs by SRB assay; conditions: HCC 2998, 48 h
[25] = test system: UACC-257; test: Anticancer activity against human UACC257 cells after 48 hrs by SRB assay; conditions: UACC-257, 48 h
[26] = test system: MDA-MB-231; test: Anticancer activity against human MDA-MB-231 cells after 48 hrs by SRB assay; conditions: MDA-MB-231, 48 h; for CC50: read-out: LC50 (the source's name)
[27] = test system: HL-60(TB); test: Anticancer activity against human HL-60(TB) cells after 48 hrs by SRB assay; conditions: HL-60, 48 h
[28] = test system: NCI-H460; test: Anticancer activity against human NCI-H460 cells after 48 hrs by SRB assay; conditions: NCI-H460, 48 h; for CC50: read-out: LC50 (the source's name)
[29] = test system: K562; test: Anticancer activity against human K562 cells after 48 hrs by SRB assay; conditions: K562, 48 h
[30] = test system: SK-MEL-5; test: Anticancer activity against human SK-MEL-5 cells after 48 hrs by SRB assay; conditions: SK-MEL-5, 48 h
[31] = test system: PC-3; test: Anticancer activity against human PC3 cells after 48 hrs by SRB assay; conditions: PC-3, 48 h; for CC50: read-out: LC50 (the source's name)
[32] = test system: IGROV-1; test: Anticancer activity against human IGROV1 cells after 48 hrs by SRB assay; conditions: IGROV-1, 48 h
[33] = test system: CAKI-1; test: Anticancer activity against human Caki1 cells after 48 hrs by SRB assay; conditions: CAKI-1, 48 h; for CC50: read-out: LC50 (the source's name)
[34] = test system: NCI-H23; test: Anticancer activity against human NCI-H23 cells after 48 hrs by SRB assay; conditions: NCI-H23, 48 h
[35] = test system: KM12; test: Anticancer activity against human KM12 cells after 48 hrs by SRB assay; conditions: KM12, 48 h

Structure (SMILES): Cc1cc(O)c(C2=NN(c3ccc(S(N)(=O)=O)cc3)C(c3ccc(Cl)cc3)C2)c(C)c1Cl (stereo not given)
- GI50 [1]: 13.3 µM
- TGI [1]: 27.6 µM
- GI50 [2]: 18 µM
- TGI [2]: 38.9 µM
- GI50 [3]: 14.8 µM
- TGI [3]: 32 µM
- CC50 [3]: 69.2 µM
- GI50 [4]: 13.4 µM
- TGI [4]: 31 µM
- GI50 [5]: 18.7 µM
- TGI [5]: 37.2 µM
- CC50 [5]: 73.9 µM
- GI50 [6]: 14.2 µM
- TGI [6]: 32 µM
- GI50 [7]: 19.3 µM
- TGI [7]: 76.4 µM
- CC50 [7]: 100 µM
- GI50 [8]: 10.9 µM
- TGI [8]: 25.8 µM
- GI50 [9]: 12.7 µM
- TGI [9]: 29.4 µM
- CC50 [9]: 68.1 µM
- GI50 [10]: 13.3 µM
- TGI [10]: 36.1 µM
- GI50 [11]: 17.8 µM
- TGI [11]: 33.3 µM
- GI50 [12]: 15.1 µM
- TGI [12]: 43.5 µM
- CC50 [12]: 100 µM
- GI50 [13]: 22.1 µM
- TGI [13]: 42.4 µM
- CC50 [13]: 81.4 µM
- GI50 [14]: 24.5 µM
- TGI [14]: 59.1 µM
- CC50 [14]: 100 µM
- GI50 [15]: 6.55 µM
- TGI [15]: 24.2 µM
- CC50 [15]: 71.1 µM
- GI50 [16]: 14.9 µM
- TGI [16]: 30.6 µM
- CC50 [16]: 62.9 µM
- GI50 [17]: 9.62 µM
- TGI [17]: 24.9 µM
- CC50 [17]: 63 µM
- GI50 [18]: 21.4 µM
- TGI [18]: 43.6 µM
- GI50 [19]: 19.4 µM
- TGI [19]: 38.1 µM
- GI50 [20]: 14.7 µM
- TGI [20]: 43.4 µM
- GI50 [21]: 23 µM
- TGI [21]: 62.3 µM
- CC50 [21]: 100 µM
- GI50 [22]: 26.7 µM
- TGI [22]: 43.9 µM
- CC50 [22]: 72.2 µM
- GI50 [23]: 11.8 µM
- TGI [23]: 26.9 µM
- GI50 [24]: 14.8 µM
- TGI [24]: 30.9 µM
- GI50 [25]: 26.3 µM
- TGI [25]: 63.1 µM
- GI50 [26]: 11 µM
- TGI [26]: 27.2 µM
- CC50 [26]: 67.5 µM
- GI50 [27]: 20.3 µM
- TGI [27]: 50 µM
- GI50 [28]: 12.2 µM
- TGI [28]: 27.4 µM
- CC50 [28]: 61.4 µM
- GI50 [29]: 14 µM
- TGI [29]: 44.8 µM
- GI50 [30]: 14.5 µM
- TGI [30]: 27.8 µM
- GI50 [31]: 9.21 µM
- TGI [31]: 23.9 µM
- CC50 [31]: 58.9 µM
- GI50 [32]: 18.3 µM
- TGI [32]: 59 µM
- GI50 [33]: 23.3 µM
- TGI [33]: 100 µM
- CC50 [33]: 100 µM
- GI50 [34]: 17.7 µM
- TGI [34]: 43.7 µM
- GI50 [35]: 13.3 µM
- TGI [35]: 28.3 µM

Structure (SMILES): Cc1cc(O)c(C2=NN(c3ccc(S(N)(=O)=O)cc3)C(c3ccc(N(C)C)cc3)C2)c(C)c1Cl (stereo not given)
- GI50 [1]: 7.68 µM
- LC50 [1]: 49.7 µM
- TGI [1]: 21.2 µM
- GI50 [2]: 5.01 µM
- LC50 [2]: 52.9 µM
- TGI [2]: 20.2 µM
- GI50 [3]: 2.34 µM
- TGI [3]: 6.98 µM
- CC50 [3]: 32.7 µM
- GI50 [4]: 3.57 µM
- LC50 (concentration killing 50% of cells) [4]: 41.5 µM
- TGI [4]: 14.8 µM
- GI50 [5]: 5.76 µM
- TGI [5]: 19.4 µM
- CC50 [5]: 48.9 µM
- GI50 [6]: 5.48 µM
- LC50 (concentration killing 50% of cells) [6]: 57 µM
- TGI [6]: 20.8 µM
- GI50 [7]: 4.63 µM
- TGI [7]: 17 µM
- CC50 [7]: 4.35 µM
- GI50 [8]: 3.3 µM
- LC50 [8]: 37.6 µM
- TGI [8]: 11 µM
- GI50 [9]: 3.78 µM
- TGI [9]: 19.2 µM
- CC50 [9]: 52.3 µM
- GI50 [10]: 1.88 µM
- LC50 (concentration killing 50% of cells) [10]: 59.3 µM
- TGI [10]: 13.6 µM
- GI50 [11]: 4.21 µM
- LC50 (concentration killing 50% of cells) [11]: 39.6 µM
- TGI [11]: 15.7 µM
- GI50 [12]: 3.64 µM
- TGI [12]: 13.5 µM
- CC50 [12]: 44.4 µM
- GI50 [13]: 4.48 µM
- TGI [13]: 18.8 µM
- CC50 [13]: 69.5 µM
- GI50 [14]: 5.83 µM
- TGI [14]: 21.2 µM
- CC50 [14]: 58.9 µM
- GI50 [15]: 2.01 µM
- TGI [15]: 10.5 µM
- CC50 [15]: 37.1 µM
- GI50 [16]: 3.7 µM
- TGI [16]: 14.4 µM
- CC50 [16]: 39.5 µM
- GI50 [17]: 5.71 µM
- TGI [17]: 19.2 µM
- CC50 [17]: 43.9 µM
- GI50 [18]: 11.9 µM
- LC50 [18]: 64 µM
- TGI [18]: 27.6 µM
- GI50 [19]: 12.3 µM
- LC50 [19]: 49.7 µM
- TGI [19]: 24.7 µM
- GI50 [20]: 5.91 µM
- LC50 [20]: 73.4 µM
- TGI [20]: 22.5 µM
- GI50 [21]: 3.45 µM
- TGI [21]: 20 µM
- CC50 [21]: 91.5 µM
- GI50 [22]: 6.97 µM
- TGI [22]: 19.3 µM
- CC50 [22]: 44.2 µM
- GI50 [23]: 3.34 µM
- LC50 [23]: 53.7 µM
- TGI [23]: 13.5 µM
- GI50 [24]: 6.48 µM
- LC50 [24]: 43.8 µM
- TGI [24]: 19.1 µM
- GI50 [25]: 11.9 µM
- LC50 [25]: 60.2 µM
- TGI [25]: 26.8 µM
- GI50 [26]: 2.34 µM
- TGI [26]: 11.8 µM
- CC50 [26]: 38.7 µM
- GI50 [27]: 7.84 µM
- TGI [27]: 20.8 µM
- GI50 [28]: 2.53 µM
- TGI [28]: 7.24 µM
- CC50 [28]: 29.8 µM
- GI50 [29]: 2.24 µM
- LC50 [29]: 33.9 µM
- TGI [29]: 11.5 µM
- GI50 [30]: 9.59 µM
- LC50 (concentration killing 50% of cells) [30]: 46.2 µM
- TGI [30]: 21.4 µM
- GI50 [31]: 4.44 µM
- TGI [31]: 16.8 µM
- CC50 [31]: 41 µM
- GI50 [32]: 6.19 µM
- LC50 [32]: 60.2 µM
- TGI [32]: 22.3 µM
- GI50 [33]: 4.38 µM
- TGI [33]: 18.2 µM
- CC50 [33]: 45 µM
- GI50 [34]: 5.82 µM
- LC50 (concentration killing 50% of cells) [34]: 47.3 µM
- TGI [34]: 19.9 µM
- GI50 [35]: 2.8 µM
- LC50 [35]: 38.2 µM
- TGI [35]: 10.6 µM
